Experimental data: ChEMBL document CHEMBL1157703, “Synthesis, pharmacological studies and molecular modeling of some tetracyclic 1,3-diazepinium chlorides” (Bioorg Med Chem, 2010)
The source made the active and inactive calls.

Key:
[1] = molecular target: Sodium-dependent serotonin transporter (Homo sapiens) (UniProt P31645); test: Inhibition of SERT PDSP analysis; parameters: scale not given: the % may be the effect or the level left
[2] = molecular target: Sodium-dependent dopamine transporter (Homo sapiens) (UniProt Q01959)
Sodium-dependent dopamine transporter (Homo sapiens), sequence (Q01959 whole entry): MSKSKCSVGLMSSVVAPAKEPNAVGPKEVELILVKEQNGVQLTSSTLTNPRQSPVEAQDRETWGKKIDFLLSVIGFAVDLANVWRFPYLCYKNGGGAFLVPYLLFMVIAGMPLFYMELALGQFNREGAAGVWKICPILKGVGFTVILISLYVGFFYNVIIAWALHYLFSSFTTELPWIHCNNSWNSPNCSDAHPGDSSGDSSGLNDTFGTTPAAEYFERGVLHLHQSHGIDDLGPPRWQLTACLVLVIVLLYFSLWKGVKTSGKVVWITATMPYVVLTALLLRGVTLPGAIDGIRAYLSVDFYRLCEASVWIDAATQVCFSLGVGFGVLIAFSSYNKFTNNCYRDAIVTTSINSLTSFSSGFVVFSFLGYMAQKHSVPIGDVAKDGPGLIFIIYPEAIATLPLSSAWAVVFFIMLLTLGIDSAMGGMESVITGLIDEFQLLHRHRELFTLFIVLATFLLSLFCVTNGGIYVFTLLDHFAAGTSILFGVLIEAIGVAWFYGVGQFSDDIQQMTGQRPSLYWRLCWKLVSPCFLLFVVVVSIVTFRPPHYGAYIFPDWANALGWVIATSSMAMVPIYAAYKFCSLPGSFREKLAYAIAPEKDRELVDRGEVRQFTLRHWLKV
Description: Inhibition of DAT PDSP analysis

Mus musculus [3] = organism: Mus musculus; test: Effect on behavioral activity in Albino mouse assessed as inhibition of diazepam-induced loss of screen grip at 0.2 ml/10 g by hippocratic screen; assay type: functional, organism-based
Mus musculus [4] = organism: Mus musculus; test: Effect on behavioral activity in Albino mouse assessed as inhibition of diazepam-induced decrease in respiratory rate at 0.2 ml/10 g by hippocratic screen; assay type: functional, organism-based
Mus musculus [5] = organism: Mus musculus; test: Effect on behavioral activity in Albino mouse assessed as inhibition of diazepam-induced loss of analgesia at 0.2 ml/10 g by hippocratic screen; assay type: functional, organism-based
Mus musculus [6] = organism: Mus musculus; test: Effect on behavioral activity in Albino mouse assessed as inhibition of diazepam-induced anesthesia at 0.2 ml/10 g by hippocratic screen; assay type: functional, organism-based
Mus musculus [7] = organism: Mus musculus; test: Effect on behavioral activity in Albino mouse assessed as inhibition of diazepam-induced paralysis at 0.2 ml/10 g by hippocratic screen; assay type: functional, organism-based
Mus musculus [8] = organism: Mus musculus; test: Effect on behavioral activity in Albino mouse assessed as inhibition of diazepam-induced tremors at 0.2 ml/10 g by hippocratic screen; assay type: functional, organism-based
Mus musculus [9] = organism: Mus musculus; test: Effect on behavioral activity in Albino mouse assessed as inhibition of diazepam-induced startle reaction at 0.2 ml/10 g by hippocratic screen; assay type: functional, organism-based
Mus musculus [10] = test: CNS toxicity in Albino mouse assessed as anesthetic response at 0.2 ml/10 g by hippocratic screen; assay type: organism-based; conditions: in vivo
Mus musculus [11] = organism: Mus musculus; test: CNS toxicity in Albino mouse assessed as decrease in motor activity at 0.2 ml/10 g by hippocratic screen; assay type: organism-based; conditions: in vivo
Mus musculus [12] = organism: Mus musculus; test: CNS toxicity in Albino mouse assessed as ataxia at 0.2 ml/10 g by hippocratic screen; assay type: organism-based; conditions: in vivo
Mus musculus [13] = organism: Mus musculus; test: CNS toxicity in Albino mouse assessed as loss of righting reflex at 0.2 ml/10 g by hippocratic screen; assay type: organism-based; conditions: in vivo
Mus musculus [14] = organism: Mus musculus; test: CNS toxicity in Albino mouse assessed as loss of screen grip at 0.2 ml/10 g by hippocratic screen; assay type: organism-based; conditions: in vivo
Mus musculus [15] = organism: Mus musculus; test: CNS toxicity in Albino mouse assessed as pinnal reflex at 0.2 ml/10 g by hippocratic screen; assay type: organism-based; conditions: in vivo
Mus musculus [16] = organism: Mus musculus; test: CNS toxicity in Albino mouse assessed as change in respiratory rate at 0.2 ml/10 g by hippocratic screen; assay type: organism-based; conditions: in vivo
Mus musculus [17] = organism: Mus musculus; test: CNS toxicity in Albino mouse assessed as loss of analgesic activity at 0.2 ml/10 g by hippocratic screen; assay type: organism-based; conditions: in vivo
Mus musculus [18] = organism: Mus musculus; test: CNS toxicity in Albino mouse assessed as paralysis at 0.2 ml/10 g by hippocratic screen; assay type: organism-based; conditions: in vivo
Mus musculus [19] = organism: Mus musculus; test: CNS toxicity in Albino mouse assessed as tremors at 0.2 ml/10 g by hippocratic screen; assay type: organism-based; conditions: in vivo
Mus musculus [20] = organism: Mus musculus; test: CNS toxicity in Albino mouse assessed as startle reaction at 0.2 ml/10 g by hippocratic screen; assay type: organism-based; conditions: in vivo
Mus musculus [21] = organism: Mus musculus; test: Effect on behavioral activity in Albino mouse assessed as inhibition of diazepam-induced decrease in motor activity at 0.2 ml/10 g for 10 to 15 mins by hippocratic screen; assay type: functional, organism-based
Mus musculus [22] = organism: Mus musculus; test: Effect on behavioral activity in Albino mouse assessed as inhibition of diazepam-induced ataxia at 0.2 ml/10 g after 5 mins by hippocratic screen; assay type: functional, organism-based
Mus musculus [23] = organism: Mus musculus; test: Effect on behavioral activity in Albino mouse assessed as inhibition of diazepam-induced loss of righting reflex at 0.2 ml/10 g after 1 hr by hippocratic screen; assay type: functional, organism-based
Mus musculus [24] = organism: Mus musculus; test: Effect on behavioral activity in Albino mouse assessed as inhibition of diazepam-induced loss of righting reflex at 0.2 ml/10 g after 2 hrs by hippocratic screen; assay type: functional, organism-based
Mus musculus [25] = organism: Mus musculus; test: Effect on behavioral activity in Albino mouse assessed as inhibition of diazepam-induced pinnal reflex at 0.2 ml/10 g by hippocratic screen; assay type: functional, organism-based

Sodium-dependent serotonin transporter (Homo sapiens), sequence (P31645 whole entry, looked up): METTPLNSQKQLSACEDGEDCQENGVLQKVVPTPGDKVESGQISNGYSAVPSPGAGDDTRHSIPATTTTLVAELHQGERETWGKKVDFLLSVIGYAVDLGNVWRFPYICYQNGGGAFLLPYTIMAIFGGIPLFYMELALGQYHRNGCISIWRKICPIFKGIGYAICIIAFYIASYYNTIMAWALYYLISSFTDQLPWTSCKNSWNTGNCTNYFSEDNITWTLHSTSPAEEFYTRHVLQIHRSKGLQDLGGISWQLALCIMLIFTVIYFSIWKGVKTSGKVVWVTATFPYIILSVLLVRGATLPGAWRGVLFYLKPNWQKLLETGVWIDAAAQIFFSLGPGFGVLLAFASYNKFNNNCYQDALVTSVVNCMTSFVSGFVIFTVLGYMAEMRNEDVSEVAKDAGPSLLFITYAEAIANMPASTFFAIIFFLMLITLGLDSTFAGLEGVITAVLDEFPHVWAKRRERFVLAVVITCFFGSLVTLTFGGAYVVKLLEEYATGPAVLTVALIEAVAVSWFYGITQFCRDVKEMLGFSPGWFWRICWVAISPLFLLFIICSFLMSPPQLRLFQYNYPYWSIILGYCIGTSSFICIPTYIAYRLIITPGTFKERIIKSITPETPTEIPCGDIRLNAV

NCCc1c[nH]c2ccc(O)cc12
> 10000%: Activity [1]

NCCc1ccc(O)c(O)c1
> 10 µM: Ki [2]

COc1ccc2c3c(oc2c1)C(=O)Nc1cc(C)cc[n+]1C3.[Cl-]
Non-toxic: Activity (Mus musculus [10]) | Activity (Mus musculus [11]) | Activity (Mus musculus [12]) | Activity (Mus musculus [13]) | Activity (Mus musculus [14]) | Activity (Mus musculus [15]) | Activity (Mus musculus [16]) | Activity (Mus musculus [17]) | Activity (Mus musculus [18]) | Activity (Mus musculus [19]) | Activity (Mus musculus [20])
active: Activity (Mus musculus [21]) | Activity (Mus musculus [23])
inactive: Activity (Mus musculus [3]) | Activity (Mus musculus [4]) | Activity (Mus musculus [5]) | Activity (Mus musculus [6]) | Activity (Mus musculus [7]) | Activity (Mus musculus [8]) | Activity (Mus musculus [9]) | Activity (Mus musculus [22]) | Activity (Mus musculus [24]) | Activity (Mus musculus [25])
